# Target: human LPA1 receptor (Homo sapiens (Human), UniProt Q92633)
# Test: Beta-arrestin recruitment assay to determine IC50 values for human LPAR1
# Assay type: cell-based
# Details: antagonist mode, Tango EDG2-bla U2OS cells, LPA 18:1 500 nM final
# How it was run: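 Antagonist IC50 = concentration giving 50% inhibition of maximal LPA response. Read-out is beta-lactamase reporter activity after arrestin-protease recruitment in U2OS cells bearing LPA1-TEV-Gal4-VP16 construct; cells pre-incubated 20 h, 37 °C, 5% CO2.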
# Chain of human LPA1 receptor (Q92633 whole entry): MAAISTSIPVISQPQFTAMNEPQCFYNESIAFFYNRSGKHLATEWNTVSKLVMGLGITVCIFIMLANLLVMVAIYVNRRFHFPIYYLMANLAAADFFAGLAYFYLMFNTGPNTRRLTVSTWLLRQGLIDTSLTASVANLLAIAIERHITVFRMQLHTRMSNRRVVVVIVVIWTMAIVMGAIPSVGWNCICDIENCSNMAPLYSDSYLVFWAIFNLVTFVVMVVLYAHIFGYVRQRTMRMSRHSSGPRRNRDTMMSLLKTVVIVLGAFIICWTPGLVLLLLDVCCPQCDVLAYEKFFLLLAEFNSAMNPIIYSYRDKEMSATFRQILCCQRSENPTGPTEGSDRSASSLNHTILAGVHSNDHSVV
row,IC50 [nM],Molecule
1,25,"Cc1ccc(NC(=O)C2(c3ccccc3C(C)C)CN(C(=O)NC(C)(C)C(=O)O)C2)c(OC(F)F)n1 [Ex 17-13, 2-(3-((2-(difluoromethoxy)-6-methylpyridin-3-yl)carbamoyl)-3-(2-isopropylphenyl)azetidine-1-carboxamido)-2-methylpropanoic acid]"
2,240,"Cc1ccc(NC(=O)C2(c3ccccc3C(C)C)CN(C(=O)N3CCN(C)CC3)C2)c(OC(F)F)n1 [Ex 17-26, N-(2-(difluoromethoxy)-6-methylpyridin-3-yl)-3-(2-isopropylphenyl)-1-(4-methylpiperazine-1-carbonyl)azetidine-3-carboxamide]"
3,2,"CC(C)c1ccccc1C1(C(=O)Nc2ncc(Cl)cc2OC(F)F)CN(S(N)(=O)=O)C1 [Ex 81-3, N-(5-chloro-3-(difluoromethoxy)pyridin-2-yl)-3-(2-isopropylphenyl)-1-sulfamoylazetidine-3-carboxamide]"
4,270,"COC(=O)c1[nH]ncc1S(=O)(=O)N1CC(C(=O)Nc2ccc(C)nc2OC(F)F)(c2ccccc2C(C)C)C1 [Ex 13-22, methyl 4-((3-((2-(difluoromethoxy)-6-methylpyridin-3-yl)carbamoyl)-3-(2-isopropylphenyl)azetidin-1-yl)sulfonyl)-1H-pyrazole-5-carboxylate]"
5,30,"Cc1ccc(NC(=O)C2(c3ccccc3C(C)C)CN(C(=O)OCC3(C(=O)O)COC3)C2)c(OC(F)F)n1 [Ex 14-14, 3-(((3-((2-(difluoromethoxy)-6-methylpyridin-3-yl)carbamoyl)-3-(2-isopropylphenyl)azetidine-1-carbonyl)oxy)methyl)oxetane-3-carboxylic acid]"
6,74,"COC(=O)COC(=O)N1CC(C(=O)Nc2ncc(C)cc2OC(F)F)(c2ccccc2C(C)C)C1 [Ex 83-1, 2-methoxy-2-oxoethyl 3-((3-(difluoromethoxy)-5-methylpyridin-2-yl)carbamoyl)-3-(2-isopropylphenyl)azetidine-1-carboxylate]"
7,750,"CCOC(=O)c1cn[nH]c1S(=O)(=O)N1CC(C(=O)Nc2ccc(C)nc2OC(F)F)(c2ccccc2C(C)C)C1 [Ex 13-24, ethyl 5-((3-((2-(difluoromethoxy)-6-methylpyridin-3-yl)carbamoyl)-3-(2-isopropylphenyl)azetidin-1-yl)sulfonyl)-1H-pyrazole-4-carboxylate]"
8,10,"CC(=O)N1CC(C(=O)Nc2ccc(C)nc2OC(F)F)(c2ccccc2C(C)C)C1 [Ex 12-2, 1-acetyl-N-(2-(difluoromethoxy)-6-methylpyridin-3-yl)-3-(2-isopropylphenyl)azetidine-3-carboxamide]"
9,19,"Cc1ccc(NC(=O)C2(c3ccccc3C(C)C)CN(C(=O)Cc3cc(O)n[nH]3)C2)c(OC(F)F)n1 [Ex 12-24, N-(2-(difluoromethoxy)-6-methylpyridin-3-yl)-1-(2-(3-hydroxy-1H-pyrazol-5-yl)acetyl)-3-(2-isopropylphenyl)azetidine-3-carboxamide]"
10,230,"COC(=O)CCC(=O)N1CC(C(=O)Nc2ccc(Cl)nc2OC)(c2ccccc2C(C)C)C1 [Ex 12-69, methyl 4-(3-((6-chloro-2-methoxypyridin-3-yl)carbamoyl)-3-(2-isopropylphenyl)azetidin-1-yl)-4-oxobutanoate]"
11,6,"Cc1ccc(NC(=O)C2(c3ccccc3C(C)C)CN(C(=O)CNOCc3ccccc3)C2)c(OC(F)F)n1 [Ex 12-134, 1-((benzyloxy)glycyl)-N-(2-(difluoromethoxy)-6-methylpyridin-3-yl)-3-(2-isopropylphenyl)azetidine-3-carboxamide]"
12,16,"CCOC(=O)CCN1CC(C(=O)Nc2ccc(C)nc2OC(F)F)(c2ccccc2C(C)C)C1 [Ex 11-13, ethyl 3-(3-((2-(difluoromethoxy)-6-methylpyridin-3-yl)carbamoyl)-3-(2-isopropylphenyl)azetidin-1-yl)propanoate]"
13,29,2-(2-(3-((2-(difluoromethoxy)-6-methylpyridin-3-yl)carbamoyl)-3-(2-isopropylphenyl)azetidin-1-yl)ethoxy)-2-methylpropanoic acid [Ex 40]
14,1,"Cc1ccc(NC(=O)C2(c3ccccc3C(C)C)CN(c3ccc(C#N)cn3)C2)c(OC(F)F)n1 [Ex 18-22, 1-(5-cyanopyridin-2-yl)-N-(2-(difluoromethoxy)-6-methylpyridin-3-yl)-3-(2-isopropylphenyl)azetidine-3-carboxamide]"
15,17,"Cc1ccc(NC(=O)C2(c3ccccc3C(C)C)CN(C(=O)CNCC3(O)CC3)C2)c(OC(F)F)n1 [Ex 12-57, N-(2-(difluoromethoxy)-6-methylpyridin-3-yl)-1-(((1-hydroxycyclopropyl)methyl)glycyl)-3-(2-isopropylphenyl)azetidine-3-carboxamide]"
16,12,"Cc1ccc(NC(=O)C2(c3ccccc3C(C)C)CCN(C(=O)CC(=O)O)CC2)c(OC(F)F)n1 [Ex 12-66, 3-(4-((2-(difluoromethoxy)-6-methylpyridin-3-yl)carbamoyl)-4-(2-isopropylphenyl)piperidin-1-yl)-3-oxopropanoic acid]"

row,IC50 [nM],Molecule
1,4,"Cc1ccc(NC(=O)C2(c3ccccc3C(C)C)CN(S(=O)(=O)CC(C)(C)C(=O)O)C2)c(OC(F)F)n1 [Ex 13-12, 3-((3-((2-(difluoromethoxy)-6-methylpyridin-3-yl)carbamoyl)-3-(2-isopropylphenyl)azetidin-1-yl)sulfonyl)-2,2-dimethylpropanoic acid]"
2,9,"Cc1ccc(NC(=O)C2(c3ccccc3C(C)C)CN(C(=O)O[C@H](C)C(=O)O)C2)c(OC(F)F)n1 [Ex 14-5, (R)-2-((3-((2-(difluoromethoxy)-6-methylpyridin-3-yl)carbamoyl)-3-(2-isopropylphenyl)azetidine-1-carbonyl)oxy)propanoic acid]"
3,6,"Cc1ccc(NC(=O)C2(c3ccccc3C(C)C)CCN(C(=O)OCC(=O)O)CC2)c(OC(F)F)n1 [Ex 14-3, 2-((4-((2-(difluoromethoxy)-6-methylpyridin-3-yl)carbamoyl)-4-(2-isopropylphenyl)piperidine-1-carbonyl)oxy)acetic acid]"
4,44,(R)-2-amino-5-(3-((2-(difluoromethoxy)-6-methylpyridin-3-yl)carbamoyl)-3-(2-isopropylphenyl)azetidin-1-yl)-5-oxopentanoic acid [Ex 49]
5,120,"CCOC(=O)c1nccc(N2CC(C(=O)Nc3ccc(C)nc3OC(F)F)(c3ccccc3C(C)C)C2)n1 [Ex 18-10, ethyl 4-(3-((2-(difluoromethoxy)-6-methylpyridin-3-yl)carbamoyl)-3-(2-isopropylphenyl)azetidin-1-yl)pyrimidine-2-carboxylate]"
6,338,"CC(C)c1ccccc1C1(C(=O)Nc2cc(F)cnc2OC(F)F)CNC1 [Ex 8, N-(2-(difluoromethoxy)-5-fluoropyridin-3-yl)-3-(2-isopropylphenyl)azetidine-3-carboxamide]"
7,12,"Cc1ccc(NC(=O)C2(c3ccccc3C(C)C)CN(Cc3ccc(C(=O)O)o3)C2)c(OC(F)F)n1 [Ex 11-57, 5-((3-((2-(difluoromethoxy)-6-methylpyridin-3-yl)carbamoyl)-3-(2-isopropylphenyl)azetidin-1-yl)methyl)furan-2-carboxylic acid]"
8,10,"COC(=O)c1cnc(N2CC(C(=O)Nc3ccc(C)nc3OC(F)F)(c3ccccc3C(C)C)C2)cn1 [Ex 18-8, methyl 5-(3-((2-(difluoromethoxy)-6-methylpyridin-3-yl)carbamoyl)-3-(2-isopropylphenyl)azetidin-1-yl)pyrazine-2-carboxylate]"
9,60,"COc1nc(Cl)ccc1NC(=O)C1(c2ccccc2C(C)C)CN(C(=O)CCC(=O)O)C1 [Ex 12-70, 4-(3-((6-chloro-2-methoxypyridin-3-yl)carbamoyl)-3-(2-isopropylphenyl)azetidin-1-yl)-4-oxobutanoic acid]"
10,39,"Cc1ccc(NC(=O)C2(c3ccccc3C(C)C)CN(C(=O)CC(F)(F)C(=O)O)C2)c(OC(F)F)n1 [Ex 12-112, 4-(3-((2-(difluoromethoxy)-6-methylpyridin-3-yl)carbamoyl)-3-(2-isopropylphenyl)azetidin-1-yl)-2,2-difluoro-4-oxobutanoic acid]"
11,4,"Cc1ccc(NC(=O)C2(c3ccccc3C(C)C)CN(C(=O)OCC(C)(C)C(=O)O)C2)c(OC(F)F)n1 [Ex 14-10, 3-((3-((2-(difluoromethoxy)-6-methylpyridin-3-yl)carbamoyl)-3-(2-isopropylphenyl)azetidine-1-carbonyl)oxy)-2,2-dimethylpropanoic acid]"
12,10,"CC(C)c1ccccc1C1(C(=O)Nc2ncc(Br)cc2OC(F)F)CNC1 [Ex 73, N-(5-bromo-3-(difluoromethoxy)pyridin-2-yl)-3-(2-isopropylphenyl)azetidine-3-carboxamide]"
13,225,"CC(=O)N1CCC(CC(=O)N2CC(C(=O)Nc3ccc(C)nc3OC(F)F)(c3ccccc3C(C)C)C2)CC1 [Ex 12-137, 1-(2-(1-acetylpiperidin-4-yl)acetyl)-N-(2-(difluoromethoxy)-6-methylpyridin-3-yl)-3-(2-isopropylphenyl)azetidine-3-carboxamide]"
14,10,"Cc1ccc(NC(=O)C2(c3ccccc3C(C)C)CN(S(=O)(=O)C3(CC(=O)O)CC3)C2)c(OC(F)F)n1 [Ex 13-14, 2-(1-((3-((2-(difluoromethoxy)-6-methylpyridin-3-yl)carbamoyl)-3-(2-isopropylphenyl)azetidin-1-yl)sulfonyl)cyclopropyl)acetic acid]"
15,33,"Cc1ccc(NC(=O)C2(c3ccccc3C(C)C)CN(C(=O)CCC(=O)O)C2)c(OC(C)C)n1 [Ex 12-68, 4-(3-((2-isopropoxy-6-methylpyridin-3-yl)carbamoyl)-3-(2-isopropylphenyl)azetidin-1-yl)-4-oxobutanoic acid]"
16,67,"COC(=O)Cn1cccc1CN1CC(C(=O)Nc2ccc(C)nc2OC(F)F)(c2ccccc2C(C)C)C1 [Ex 11-41, methyl 2-(2-((3-((2-(difluoromethoxy)-6-methylpyridin-3-yl)carbamoyl)-3-(2-isopropylphenyl)azetidin-1-yl)methyl)-1H-pyrrol-1-yl)acetate]"
